# Laboratory results taken from patent EP0119332A1, “Novel pyranose oxidase processes for the production and use thereof and test compositions for use therein” (priority 1983, dated 1984).
# Read-outs that look alike come from different tables or passages of the source.
# What was measured:
# Assay type in all cases: biochemical
# [1] = target: T1, pyranose oxidase (Trametes versicolor, UniProt P79076); experiment: Substrate specificity (relative activity on carbohydrates, peroxidase/4AA-phenol colour assay); settings: substrate: 0.1 ml of 100 mM carbohydrate liquor; enzyme 2.5 U/ml; percentage of the glucose reaction
# T1 construct: made in house; host or cells: Coriolus versicolor ATCC 20155, the native producer (not recombinant); Enzyme was purified from disrupted mycelium by HPA-75, Sepharose 4B and Sephadex G-100 columns
# Method: A 3.0 ml sample is first prepared comprising 1.0 ml of 0.1 M tris-hydrochloride buffer (pH 7.0), 0.2 ml of a colouring reagent prepared in advance as hereinafter described, 0.1 ml of 1 M glucose solution, 0.1 ml of a solution of the pyranose oxidase at a known concentration, 0.1 ml of 0.1 mM flavinadenine dinucleotide and 1.5 ml of distilled water. Said colouring reagent is prepared by adding 0.1 M tris-hydrochloride buffer (pH 7.0) containing 10 m mol ℓ4-aminoantipyrine (hereinafter referred to as 4AA) and 10 m mol/Zphenol, to an amount of a peroxidase which is sufficient to provide a peroxidase concentration in said buffer of 2000 U per 100 mI. The pyranose oxidase containing sample is incubated at 37°C and the increasing rate of the absorbancy at 500 nm is automatically measured on a spectrophotometer. If the molecular extinction coefficient of a quinoneimine pigment formed under these conditions is defined as 5.3 x 10^3, and one unit of enzymatic activity is defined as the amount of the enzyme that produces one µ mole of hydrogen peroxide per minute at a temperature of 37°C and at a pH of 7.0, then the enzymatic activity (A) of the pyranose oxidase in the sample can be defined by the following formula:- [formula] where A500 is the rate of increase of the absorbancy of the sample per minute at 500nm.
# The same reactions as described in the assay method for enzymatic activity were repeated except that an enzyme concentration of 2.5 U/ml was used, and, as the substrate, 0.1 ml samples of various carbohydrate liquors indicated in Table I were used, each such liquor having a concentration of 100 mM. […] The specificity with respect to the latter two, in particular being a great deal lower than that of the known pyranose oxidase derived from microorganisms of the genus Polyporus (Table 1 of B.B.A. 167, 501-510 (1968)).
# [2] = target: T1, pyranose oxidase; experiment: biochemical
# Method: Samples of the enzyme were dissolved in Tris buffer solutions have the pH indicated in Figure 2 to make up enzyme solutions having an activity of 250 mU/3.7 ml. Each of the enzyme solutions was put into a BIOXYGRAPH cell (trade name for a cell for measuring oxygen concentration made by Kyusui Kagaku Laboratory, Japan), and 50 µℓ of 1 M glucose were added. Measurements were made to determine the amount of absorbed oxygen.
# Various inhibitors were studied in the same manner as that adopted in determination of the optimum pH. A reaction solution comprising 3.4 ml of 50 mM tris-hydrochloride buffer (pH 7.0), 0.1 ml of enzyme solutin containing 280 mU of pyranose oxidase and 0.2 ml of 18.5 mM inhibitor solution were put into a cell for measuring oxygen uptake and 50µℓof 1M glucose were added thereto and the sample incubated at 37°C.
# [3] = target: T1, pyranose oxidase
# Method: In this phase, 1.4 ml of 50 mM tris-hydrochloride buffer (pH 7.0), 0.1. ml of 250 mU enzyme solution and 0.5 ml of electron acceptor solutions having various concentrations as indicated in Table 2 were put into a cell with Thunberg tube. After saturating with dissolved oxygen, the reaction solution was mixed with 0.5 ml of a 0.1 M glucose solution. The change in absorbancy per minute from 30 minutes to 90 minutes after mixing was determined and the activities of the electron acceptors are expressed as relative activity.
# [4] = 0.2 ml of 18.5 mM inhibitor solution, 280 mU pyranose oxidase, pH 7.0, 37°C, 50 µl of 1M glucose
# [5] = electron acceptor concentration 0.1 mM, pH 7.0, 250 mU enzyme solution, 0.1 M glucose solution
compound,measurement,setting,value
O=C(CO)[C@H](O)[C@@H](O)[C@H](O)CO [sorbose],Relative Activity (%),[1],3.4%
Oc1cccc2cccnc12 [8-hydroxyquinoline],Percent Inhibition (%),[2]; pH 7,13.3%
"O=C1C(Cl)=CC(=Nc2ccc(O)cc2)C=C1Cl [2,6-Dichlorophenolindophenol]",Relative Activity (%),"[3]; electron acceptor concentration 0.04 mM, pH 7.0, 250 mU enzyme solution, 0.1 M glucose solution",2.5%
cobalt sulfate,Percent Inhibition (%),[2]; [4],13.3%
copper sulfate,Percent Inhibition (%),[2]; [4],35.7%
O=C(O)[C@H](O)[C@@H](O)[C@H](O)[C@H](O)CO [gluconic acid],Relative Activity (%),[1],0%
O=C[C@H](O)[C@@H](O)[C@H](O)CO [xylose],Relative Activity (%),[1],2.6%
Nitroprusside-tetrazolium,Relative Activity (%),[3]; [5],0%
O=[N+]([O-])[O-].[Ag+] [silver nitrate],Percent Inhibition (%),[2]; [4],53.3%
O=C(CO)[C@@H](O)[C@H](O)[C@H](O)CO [fructose],Relative Activity (%),[1],0%
OC[C@H]1O[C@H](O[C@H]2[C@H](O)[C@@H](O)[C@H](O)O[C@@H]2CO)[C@H](O)[C@@H](O)[C@@H]1O [maltose],Relative Activity (%),[1],0%
O=O [Oxygen],electron acceptor suitability (in words),[3],optimum electron acceptor
same,Relative Activity (%),[3]; pH 7,100%
magnesium sulfate,Percent Inhibition (%),[2]; [4],0%
N[C@H]1C(O)O[C@H](CO)[C@@H](O)[C@@H]1O (stereo partly shown) [glucosamine],Relative Activity (%),[1],0%
NC(=O)c1ccc[n+]([C@@H]2O[C@H](COP(=O)([O-])OP(=O)(O)OC[C@H]3O[C@@H](n4cnc5c(N)ncnc54)[C@H](OP(=O)(O)O)[C@@H]3O)[C@@H](O)[C@H]2O)c1 [Nicotinamide-adenine dinucleotide phosphate],Relative Activity (%),[3]; [5],0%
NC(=O)c1ccc[n+]([C@@H]2O[C@H](COP(=O)([O-])OP(=O)(O)OC[C@H]3O[C@@H](n4cnc5c(N)ncnc54)[C@H](O)[C@@H]3O)[C@@H](O)[C@H]2O)c1 [Nicotinamide-adenine dinucleotide],Relative Activity (%),[3]; [5],0%
OC[C@@H](O)[C@@H](O)[C@H](O)[C@H](O)CO [mannitol],Relative Activity (%),[1],0%
OC[C@H]1O[C@@H](O[C@H]2[C@H](O)[C@@H](O)C(O)O[C@@H]2CO)[C@H](O)[C@@H](O)[C@H]1O (stereo partly shown) [lactose],Relative Activity (%),[1],0%
OC[C@H]1O[C@H](O[C@H]2O[C@H](CO)[C@@H](O)[C@H](O)[C@H]2O)[C@H](O)[C@@H](O)[C@@H]1O [trehalose],Relative Activity (%),[1],0%
OO [hydrogen peroxide],inhibition at 18500 µM,"[2]; pH 7, read-out: Percent Inhibition (%)",20%
O=C[C@H](O)[C@@H](O)[C@@H](O)[C@H](O)CO [galactose],Relative Activity (%),[1],0.9%
